# Assay results: patent US20120149724A1, “MODULATING ENDOGENOUS BETA-ENDORPHIN LEVELS” (THE GENERAL HOSPITAL CORPORATION, priority 2009, published 2012)
# Entries after “also recorded” stand apart in the source; their conditions may differ.
# System: UV-exposed C57BL/6 mice
# Experiment: pain thresholds (von Frey and hot plate) over daily low-dose UVB exposure
# Type: in vivo
# Details: UVB 50 mJ/cm2/day, 5 days/week for 6 weeks, 10 mg/kg ip 15 minutes before testing
# Description: To obtain the data shown in FIGS. 7A, 7B and 7C, eight-week-old male C57BL/6 mice were dorsally depilated and either exposed to 50 mJ/cm2/day or mock exposed 5 days/week for 6 weeks. Blood was drawn prior to, once weekly during, and once weekly for 2 weeks following the end of the regimen for β-endorphin measurement. In addition, pain thresholds in both the von Frey and hot plate assay were measured prior to, twice weekly during, and twice weekly for 2 weeks following the end of the regimen. One subgroup of UV-exposed mice and one subgroup of mock-treated mice were injected with naloxone (10 mg/kg, ip) and another subgroup of UV-exposed mice and mock-treated mice were injected with saline (ip) 15 minutes prior to each pain threshold testing. Pain threshold measurements were taken on 2 non-consecutive days and on a different day from the blood draws each week. […] Error bars indicate +/−SEM. […] Error bars indicate +/− standard deviation. […]
# Eight-week-old male C57BL/6 mice were dorsally depilated and either exposed to 50 mJ/cm2/day or mock exposed 5 days/week for 6 weeks. […] In addition, pain thresholds in both the von Frey and hot plate assay were measured prior to, twice weekly during, and twice weekly for 2 weeks following the end of the regimen. […]
compound,measurement,value
C=CCN1CC[C@]23c4c5ccc(O)c4O[C@H]2C(=O)CC[C@@]3(O)[C@H]1C5 [naloxone],effect on UV-induced changes in pain thresholds / opioid-mediated phenotypes,naloxone-reversible; also recorded: reversed
